From patent US20060111305A1, “Metabolites of certain [1,4]diazepino[6,7,1-ij]quinoline derivatives and methods of preparation and use thereof” (Wyeth, priority 2004, published 2006)
Several values for one entry are separate records, joined by “and”; a condition that tells them apart may be missing. Identical values can stand only once. Like-named read-outs stand apart in the source and are kept apart here.

Assay: Concentrations of DCDQ and DCDQ carbamoyl glucuronide (M6) in human plasma, LC/SRM (Table 34)
Type: in vivo, healthy human subjects
Details: for concentration at 6 h / concentration at 12 h / concentration at 24 h: human, oral, read-out: M6 concentration in plasma; for concentration at 6 h / concentration at 12 h / concentration at 24 h / M6 to DCDQ Ratios / M6 concentration in plasma: plasma
Protocol: Drug administration and specimen collection were performed in a randomized, double-blinded, placebo-controlled, ascending single dose study of the safety, tolerability, pharmacokinetics, and pharmacodynamics of DCDQ administered orally to healthy subjects and subjects with schizophrenia and schizoaffective disorder. The specimens were stored at approximately −70° C. until analysis for metabolite profiles and for ratios of carbamoyl glucuronide (M6) to DCDQ.
Plasma samples from fasted subjects 25, 28 and 30 in the 50 mg single dose group, fasted subjects 50, 51, 54 in the 200 mg single dose group, fasted subjects 74, 76, 79 in the 300 mg single dose group, fed subjects 83, 84, 86 in the 300 mg single dose group and fasted subjects 92, 94, 96 in the 500 mg single dose group were analyzed for DCDQ carbamoyl glucuronide (M6) concentrations. The internal standard d8-DCDQ (25 μL of 200 ng/mL methanol solution) was added to 100 μL of the plasma samples, followed by the addition of 300 μL of acetonitrile. The samples were mixed and centrifuged at 14000 rpm in an Eppendorf 5415C centrifuge (Brinkman Instruments Inc., Westbury, N.Y.) for 10 minutes. The supernatant of each sample was transferred to a clean tube and evaporated to dryness under a stream of nitrogen in a TurboVap LV evaporator (Caliper Life Sciences, Hopkinton, Mass.). The residue was reconstituted with 50 μL of methanol followed by the addition of 150 μL of water. The sample was mixed and centrifuged as described above. The supernatant was analyzed by LC/MS/MS analysis. Samples for standard curves were prepared with control plasma spiked with synthetic M6. The concentrations of M6 used for the standard curve ranged from 0 to 2500 ng/mL plasma.
LC/MS System 3 was used for semi-quantitative analysis of metabolite M6 (DCDQ carbamoyl glucuronide) in plasma and urine samples. The HPLC equipment for this LC/MS System consisted of a Thermo Surveyor HPLC (Thermo Electron Corp., San Jose, Calif.), including a Surveyor MS pump and autosampler. Separations were accomplished on a 5 micron Phenomenex Luna C18(2) column, 150×2 mm (Phenomenex, Torrance, Calif.). The autosampler and column temperatures were set at 5° C. and 40° C., respectively. The HPLC mobile phase consisted of 10 mM ammonium acetate (A) and methanol (B), and was delivered at 0.2 mL/min. The linear mobile phase gradient (HPLC Gradient 2) is shown below. During LC/MS sample analysis, up to 3 min of the initial flow was diverted away from the mass spectrometer prior to evaluation of metabolites.
The mass spectrometer used for semi-quantitative anslysis with LC/MS System 3 was a Finnigan TSQ Quantum triple quadrupole mass spectrometer (Thermo Electron Corp.). The mass spectrometer was equipped with an electrospray interface and operated in the positive ionization mode. Settings for this mass spectrometer are listed below.
LC/MS/MS analysis in the selected reaction monitoring (SRM) mode (LC/SRM) was conducted for DCDQ and M6 using the following settings.
The computer program Microsoft Excel® 97 was used to calculate means and standard deviations and to perform the student t-test. Xcalibur (version 1.3) and MassLynx software (version 4.0) were used for collection and analysis of LC/MS data. Peak area ratios of M6 to the internal standard were used for quantitation of M6 in plasma samples.

[1] = 50 mg (fasted), 6 hr, individual subjects
[2] = 50 mg (fasted), 12 hr, individual subjects
[3] = 50 mg (fasted), 24 hr, individual subjects
[4] = 200 mg (fasted), 6 hr, individual subjects
[5] = 200 mg (fasted), 12 hr, individual subjects
[6] = 200 mg (fasted), 24 hr, individual subjects
[7] = 300 mg (fasted), 6 hr, individual subjects
[8] = 300 mg (fasted), 12 hr, individual subjects
[9] = 300 mg (fasted), 24 hr, individual subjects
[10] = 300 mg (fed), 6 hr, individual subjects
[11] = 300 mg (fed), 12 hr, individual subjects

Q: Which “differences in M6 concentrations and M6 to DCDQ ratios between fasted and fed subjects” value (300 mg of DCDQ) does the source give for O=C(O)[C@H]1O[C@@H](OC(=O)N2CCN3C[C@@H]4CCC[C@@H]4c4cccc(c43)C2)[C@H](O)[C@@H](O)[C@@H]1O [Metabolite M6, carbamoyl glucuronide of DCDQ] here?
A: no statistically significant differences

Q: What about the concentration at 6 h (50 mg, 50 mg (fasted), 6 hr, Mean ± S.D.) of the same compound?
A: 114 ± 26.9 ng/mL

Q: And the concentration at 6 h (50 mg, 50 mg (fasted), 6 hr, individual subjects)?
A: 127 ng/mL

Q: What about the concentration at 12 h (50 mg, 50 mg (fasted), 12 hr, Mean ± S.D.) of the same compound?
A: 12.4 ± 5 ng/mL

Q: What about the concentration at 24 h (50 mg, 50 mg (fasted), 24 hr, Mean (standard deviation not calculated)) of the same compound?
A: 3.35 ng/mL

Q: And the concentration at 24 h (50 mg, 50 mg (fasted), 24 hr, individual subjects)?
A: 3.1 ng/mL

Q: And the concentration at 6 h (200 mg, 200 mg (fasted), 6 hr, Mean ± S.D.)?
A: 352 ± 228 ng/mL

Q: What about the concentration at 12 h (200 mg, 200 mg (fasted), 12 hr, Mean ± S.D.) of the same compound?
A: 43.6 ± 17.1 ng/mL

Q: What about the concentration at 24 h (200 mg, 200 mg (fasted), 24 hr, Mean ± S.D.) of the same compound?
A: 7.67 ± 2.5 ng/mL

Q: And the concentration at 24 h (200 mg, 200 mg (fasted), 24 hr, individual subjects)?
A: 4.8 ng/mL

Q: And the concentration at 6 h (300 mg, 300 mg (fasted), 6 hr, Mean ± S.D.)?
A: 237 ± 108 ng/mL

Q: And the concentration at 12 h (300 mg, 300 mg (fasted), 12 hr, Mean ± S.D.)?
A: 88.7 ± 51.8 ng/mL

Q: What about the concentration at 24 h (300 mg, 300 mg (fasted), 24 hr, Mean ± S.D.) of the same compound?
A: 28.9 ± 18.4 ng/mL

Q: What about the concentration at 6 h (300 mg, 300 mg (fed), 6 hr, Mean ± S.D.) of the same compound?
A: 579 ± 354 ng/mL

Q: What about the concentration at 12 h (300 mg, 300 mg (fed), 12 hr, Mean ± S.D.) of the same compound?
A: 286 ± 251 ng/mL

Q: And the concentration at 24 h (300 mg, 300 mg (fed), 24 hr, Mean ± S.D.)?
A: 59 ± 75.9 ng/mL

Q: And the concentration at 6 h (500 mg, 500 mg (fasted), 6 hr, Mean ± S.D.)?
A: 1020 ± 444 ng/mL

Q: What about the concentration at 12 h (500 mg, 500 mg (fasted), 12 hr, Mean ± S.D.) of the same compound?
A: 178 ± 30.1 ng/mL

Q: And the concentration at 12 h (500 mg, 500 mg (fasted), 12 hr, individual subjects)?
A: 146 ng/mL

Q: And the concentration at 24 h (500 mg, 500 mg (fasted), 24 hr, Mean ± S.D.)?
A: 49.6 ± 32.6 ng/mL

Q: What about the “M6 to DCDQ Ratios” value (50 mg (fasted), 6 hr, Mean ± S.D.) of the same compound?
A: 74.3 ± 59.6

Q: What about the “M6 concentration in plasma” value [1] of the same compound?
A: 132 ng/mL and 83.1 ng/mL

Q: And the “M6 to DCDQ Ratios” value [1]?
A: 141 and 26.4

Q: What about the “M6 to DCDQ Ratios” value (50 mg (fasted), 12 hr, Mean ± S.D.) of the same compound?
A: 14.8 ± 7.87

Q: And the “M6 concentration in plasma” value [2]?
A: 15.1 ng/mL and 6.60 ng/mL and 15.4 ng/mL

Q: What about the “M6 to DCDQ Ratios” value [2] of the same compound?
A: 21.6 and 16.5 and 6.16

Q: And the “M6 to DCDQ Ratios” value (50 mg (fasted), 24 hr, Mean (standard deviation not calculated))?
A: 10.8

Q: What about the “M6 concentration in plasma” value [3] of the same compound?
A: 3.6 ng/mL

Q: What about the “M6 to DCDQ Ratios” value [3] of the same compound?
A: 15.5 and 6.00

Q: And the “M6 to DCDQ Ratios” value (200 mg (fasted), 6 hr, Mean ± S.D.)?
A: 45.2 ± 34.0

Q: And the “M6 concentration in plasma” value [4]?
A: 225 ng/mL and 615 ng/mL and 216 ng/mL

Q: And the “M6 to DCDQ Ratios” value [4]?
A: 83.3 and 34.2 and 18.0

Q: What about the “M6 to DCDQ Ratios” value (200 mg (fasted), 12 hr, Mean ± S.D.) of the same compound?
A: 14.3 ± 14.8

Q: What about the “M6 concentration in plasma” value [5] of the same compound?
A: 37.5 ng/mL and 62.9 ng/mL and 30.3 ng/mL

Q: And the “M6 to DCDQ Ratios” value [5]?
A: 31.3 and 6.84 and 4.73

Q: What about the “M6 to DCDQ Ratios” value (200 mg (fasted), 24 hr, Mean ± S.D.) of the same compound?
A: 8.42 ± 6.68

Q: And the “M6 concentration in plasma” value [6]?
A: 8.8 ng/mL and 9.4 ng/mL

Q: What about the “M6 to DCDQ Ratios” value [6] of the same compound?
A: 16.0 and 3.38 and 5.88

Q: What about the “M6 to DCDQ Ratios” value (300 mg (fasted), 6 hr, Mean ± S.D.) of the same compound?
A: 46.1 ± 21.6

Q: And the “M6 concentration in plasma” value [7]?
A: 123 ng/mL and 249 ng/mL and 339 ng/mL

Q: And the “M6 to DCDQ Ratios” value [7]?
A: 58.9 and 58.3 and 21.2

Q: What about the “M6 to DCDQ Ratios” value (300 mg (fasted), 12 hr, Mean ± S.D.) of the same compound?
A: 23.5 ± 5.10

Q: And the “M6 concentration in plasma” value [8]?
A: 43.0 ng/mL and 78.0 ng/mL and 145 ng/mL

Q: What about the “M6 to DCDQ Ratios” value [8] of the same compound?
A: 28.7 and 23.4 and 18.5

Q: And the “M6 to DCDQ Ratios” value (300 mg (fasted), 24 hr, Mean ± S.D.)?
A: 24.1 ± 22.7

Q: What about the “M6 concentration in plasma” value [9] of the same compound?
A: 48.5 ng/mL and 12.0 ng/mL and 26.3 ng/mL

Q: What about the “M6 to DCDQ Ratios” value [9] of the same compound?
A: 49.9 and 6.98 and 15.5

Q: And the “M6 to DCDQ Ratios” value (300 mg (fed), 6 hr, Mean ± S.D.)?
A: 76.6 ± 54.9

Q: And the “M6 concentration in plasma” value [10]?
A: 860 ng/mL and 696 ng/mL and 182 ng/mL

Q: What about the “M6 to DCDQ Ratios” value [10] of the same compound?
A: 45.3 and 44.6 and 140

Q: What about the “M6 concentration in plasma” value [11] of the same compound?
A: 279 ng/mL and 38.1 ng/mL and 540 ng/mL

Q: And the “M6 to DCDQ Ratios” value [11]?
A: 25.6 and 4.73

Q: And the “M6 concentration in plasma” value (300 mg (fed), 24 hr, individual subjects)?
A: 24.6 ng/mL and 6.40 ng/mL and 146 ng/mL

Q: What about the “M6 concentration in plasma” value (500 mg (fasted), 6 hr, individual subjects) of the same compound?
A: 1324 ng/mL and 508 ng/mL and 1221 ng/mL

Q: And the “M6 concentration in plasma” value (500 mg (fasted), 12 hr, individual subjects)?
A: 181 ng/mL and 206 ng/mL

Q: What about the “M6 concentration in plasma” value (500 mg (fasted), 24 hr, individual subjects) of the same compound?
A: 58.3 ng/mL and 13.5 ng/mL and 77.0 ng/mL
